# Data from patent publication US10420831B2, “Inactivation of viruses by delipidation” (priority 2016, dated 2019).
# Marks after values point to notes of the source that are not given here.
# Legend:
# PRRSV strain SD 11-21 = experiment: Inactivation of vaccine virus stock, TCID50 virus titration; type: cell-based; settings: PRRSV SD 11-21, final 30 mM MBCD in two additions, 48 hours at room temperature
# PRRSV strain ND99-14 = experiment: Inactivation kinetics of PRRSV, live virus TCID50 on MARC145 cells; type: cell-based
# Description: Inactivation kinetics experiments were conducted using PRRSV strain ND99-14, described in application U.S. Ser. No. 62/296,658, filed Feb. 18, 2016. […] Room temperature is between about 20° C. and about 25° C., and optimally between about 22° C. and about 24° C.
# […] […] Aliquots for each time point were stored at 4° C. and −70° C. until further use.
# After the 24 hour sample was collected, virus was transferred to a new container. […] […] […] Aliquots for each time point were stored at 4° C. and −70° C. until further use.
# Ten-fold serial dilutions (10^−1-10^−9) of mock inactivated and inactivated virus were added to MARC145 cells cultured on 96 well plates. The plates were incubated at 37° C. and 5% CO2 for 96 hours to allow live virus to infect cells. Virus replication was determined by observation of cytopathic effect (CPE) due to virus infection of the MARC145 cells. Each well containing a virus dilution was scored either positive or negative with regards to CPE and the resulting numbers of positive or negatice wells for each dilution were used to determine the TCID50/mL using the Reed-Muench TCID50 calculation. The mock inactivated virus was treated to the same media and temperature conditions as the inactivated virus without the addition of the inactivation agent.
# PRRSV-RESP = experiment: Blind passage assay of delipidated PRRSV on Marc-145 cells; type: cell-based; settings: 100 mM MBCD for 90 minutes
# [1] = system: human influenza virus H1N1 A/WSN/33 strain; experiment: Hemagglutination (HA) activity of treated IFV with chicken red blood cells; settings: 50 mM MBCD
# Description: Hemagglutination (HA) activity is determined as follows. Freshly isolated chicken blood is washed three times with PBS, and the red blood cells (RBC) are resuspended in PBS at a concentration of 1%. Virus dilutions (50 μL) are made in PBS and mixed with 50 μL of the RBC suspension. The mixture is added to individual wells in a 96-well plate and the RBC are allowed to settle for 45 minutes. The wells are judged to be HA negative (i.e. no agglutination of RBC) if a dot or pellet of RBC is present, and a well is judged to be positive if a smooth suspension of RBC is present.
# In addition to MBCD, another lipid solvent, diisopropyl ether (DIPE) is used to delipidate IFV. […] After a brief centrifugation at 2,000×g for 3 minutes, visible solvent is removed, and the aqueous materials are left to dry in a fume hood for 20 minutes. The samples are then centrifuged at 200,000×g for 30 minutes to recover virus particles.
substance,measurement,setting,value
methyl β-cyclodextrin [MBCD],live virus in MBCD-inactivated virus solution,PRRSV strain SD 11-21,no live virus was detected
same,live virus reduced,"PRRSV strain ND99-14; 20 mM MBCD, after 15 minutes of incubation",approximately 2.5 logs
same,PRRS virus titer,"PRRSV strain ND99-14; 20 mM MBCD, room temperature, hour 0.25, samples stored at 4° C.",5.8^a Log10 TCID50/mL
same,PRRS virus titer,"PRRSV strain ND99-14; 20 mM MBCD, room temperature, hour 0.25, samples stored at −70° C.",3.3 Log10 TCID50/mL
same,PRRS virus titer,"PRRSV strain ND99-14; 20 mM MBCD, room temperature, hour 4, samples stored at 4° C.",5.8 Log10 TCID50/mL
same,PRRS virus titer,"PRRSV strain ND99-14; 20 mM MBCD, room temperature, hour 8, samples stored at 4° C.",5.9 Log10 TCID50/mL
same,PRRS virus titer,"PRRSV strain ND99-14; 20 mM MBCD, room temperature, hour 8, samples stored at −70° C.",2.8 Log10 TCID50/mL
same,PRRS virus titer,"PRRSV strain ND99-14; 20 mM MBCD, room temperature, hour 12, samples stored at 4° C.",5.6 Log10 TCID50/mL
same,PRRS virus titer,"PRRSV strain ND99-14; 20 mM MBCD, room temperature, hour 12, samples stored at −70° C.",3.2 Log10 TCID50/mL
same,PRRS virus titer,"PRRSV strain ND99-14; 20 mM MBCD, room temperature, hour 16, samples stored at 4° C.",5.6 Log10 TCID50/mL
same,PRRS virus titer,"PRRSV strain ND99-14; 20 mM MBCD, room temperature, hour 16, samples stored at −70° C.",3.2 Log10 TCID50/mL
same,PRRS virus titer,"PRRSV strain ND99-14; 20 mM MBCD, room temperature, hour 20, samples stored at 4° C.",5.6 Log10 TCID50/mL
same,PRRS virus titer,"PRRSV strain ND99-14; 20 mM MBCD, room temperature, hour 20, samples stored at −70° C.",3.4 Log10 TCID50/mL
same,PRRS virus titer,"PRRSV strain ND99-14; 20 mM MBCD, room temperature, hour 24, samples stored at 4° C.",5.6 Log10 TCID50/mL
same,PRRS virus titer,"PRRSV strain ND99-14; 20 mM MBCD, room temperature, hour 24, samples stored at −70° C.",3.6 Log10 TCID50/mL
same,PRRS virus titer,"PRRSV strain ND99-14; 40 mM MBCD (second 20 mM added at 24 h), hour 30, samples stored at 4° C.",0 Log10 TCID50/mL
same,PRRS virus titer,"PRRSV strain ND99-14; 40 mM MBCD (second 20 mM added at 24 h), hour 30, samples stored at −70° C.",0 Log10 TCID50/mL
same,PRRS virus titer,"PRRSV strain ND99-14; 40 mM MBCD (second 20 mM added at 24 h), hour 36, samples stored at 4° C.",0 Log10 TCID50/mL
same,PRRS virus titer,"PRRSV strain ND99-14; 40 mM MBCD (second 20 mM added at 24 h), hour 36, samples stored at −70° C.",0 Log10 TCID50/mL
same,PRRS virus titer,"PRRSV strain ND99-14; 40 mM MBCD (second 20 mM added at 24 h), hour 42, samples stored at 4° C.",0 Log10 TCID50/mL
same,PRRS virus titer,"PRRSV strain ND99-14; 40 mM MBCD (second 20 mM added at 24 h), hour 42, samples stored at −70° C.",0 Log10 TCID50/mL
same,PRRS virus titer,"PRRSV strain ND99-14; 40 mM MBCD (second 20 mM added at 24 h), hour 48, samples stored at 4° C.",0 Log10 TCID50/mL
same,PRRS virus titer,"PRRSV strain ND99-14; 40 mM MBCD (second 20 mM added at 24 h), hour 48, samples stored at −70° C.",0 Log10 TCID50/mL
same,PRRS virus titer,"PRRSV strain ND99-14; 40 mM MBCD (second 20 mM added at 24 h), hour 56, samples stored at 4° C.",0 Log10 TCID50/mL
same,PRRS virus titer,"PRRSV strain ND99-14; 40 mM MBCD (second 20 mM added at 24 h), hour 56, samples stored at −70° C.",0 Log10 TCID50/mL
same,PRRS virus titer,"PRRSV strain ND99-14; 40 mM MBCD (second 20 mM added at 24 h), hour 64, samples stored at 4° C.",0 Log10 TCID50/mL
same,PRRS virus titer,"PRRSV strain ND99-14; 40 mM MBCD (second 20 mM added at 24 h), hour 64, samples stored at −70° C.",0 Log10 TCID50/mL
same,PRRS virus titer,"PRRSV strain ND99-14; 40 mM MBCD (second 20 mM added at 24 h), hour 72, samples stored at 4° C.",0 Log10 TCID50/mL
same,PRRS virus titer,"PRRSV strain ND99-14; 40 mM MBCD (second 20 mM added at 24 h), hour 72, samples stored at −70° C.",0 Log10 TCID50/mL
same,PRRS virus titer,"PRRSV strain ND99-14; 40 mM MBCD (second 20 mM added at 24 h), hour 84, samples stored at 4° C.",0 Log10 TCID50/mL
same,PRRS virus titer,"PRRSV strain ND99-14; 40 mM MBCD (second 20 mM added at 24 h), hour 84, samples stored at −70° C.",0 Log10 TCID50/mL
same,PRRS virus titer,"PRRSV strain ND99-14; 40 mM MBCD (second 20 mM added at 24 h), hour 96, samples stored at 4° C.",0 Log10 TCID50/mL
same,PRRS virus titer,"PRRSV strain ND99-14; 40 mM MBCD (second 20 mM added at 24 h), hour 96, samples stored at −70° C.",0 Log10 TCID50/mL
same,titer of PRRS virus that could be inactivated,PRRSV strain ND99-14; 40 mM MBCD added in a 2 step process,at least 8 log10 TCID50/mL
same,virus level after second addition of MBCD (in words),"PRRSV strain ND99-14; second addition of 20 mM MBCD at 24 hours, next time point (30 hours)",undetectable levels
same,less virus when stored at −70° C. versus 4° C.,PRRSV strain ND99-14; time point samples with detectable live virus,at least 100 fold
same,plaques detected by the blind passage assay,PRRSV-RESP,no plaques are detected
same,HA units,"[1]; 37° C., 30 minutes",32 HA units
same,effect on HA activity (in words),"[1]; 37° C., 30 minutes",same degree as 2%-8% DIPE
same,effect on HA activity (in words),[1]; 45 minutes,not measurably affected
same,HA units,[1]; end-over-end rotation at 37° C. for 45 minutes,32 HA units
